Test results: US10004732B2 (Novartis AG, priority 2014, dated 2018)
Like-named read-outs stand apart in the source and are kept apart here.

Experiments:
PI 3-kinase beta [1] = target: T1, PI 3-kinase beta (Homo sapiens, UniProt P42338); assay: Kinase Glo Luminescent Kinase Assay (Kglo), assay B; format: biochemical; settings: read-out: Assay B PI3Kβ IC50
PI 3-kinase delta [2] = target: T2, PI 3-kinase delta (Homo sapiens, UniProt O00329); assay: Cellular assay J1, p-Akt (S473) in Rat-1 cells, Surefire format; format: cell-based; settings: non-asterisked data: version J1 (Surefire format), Rat-1 cells; read-out: Assay J PI3Kδ IC50
Target sequence in this assay (O00329 whole entry): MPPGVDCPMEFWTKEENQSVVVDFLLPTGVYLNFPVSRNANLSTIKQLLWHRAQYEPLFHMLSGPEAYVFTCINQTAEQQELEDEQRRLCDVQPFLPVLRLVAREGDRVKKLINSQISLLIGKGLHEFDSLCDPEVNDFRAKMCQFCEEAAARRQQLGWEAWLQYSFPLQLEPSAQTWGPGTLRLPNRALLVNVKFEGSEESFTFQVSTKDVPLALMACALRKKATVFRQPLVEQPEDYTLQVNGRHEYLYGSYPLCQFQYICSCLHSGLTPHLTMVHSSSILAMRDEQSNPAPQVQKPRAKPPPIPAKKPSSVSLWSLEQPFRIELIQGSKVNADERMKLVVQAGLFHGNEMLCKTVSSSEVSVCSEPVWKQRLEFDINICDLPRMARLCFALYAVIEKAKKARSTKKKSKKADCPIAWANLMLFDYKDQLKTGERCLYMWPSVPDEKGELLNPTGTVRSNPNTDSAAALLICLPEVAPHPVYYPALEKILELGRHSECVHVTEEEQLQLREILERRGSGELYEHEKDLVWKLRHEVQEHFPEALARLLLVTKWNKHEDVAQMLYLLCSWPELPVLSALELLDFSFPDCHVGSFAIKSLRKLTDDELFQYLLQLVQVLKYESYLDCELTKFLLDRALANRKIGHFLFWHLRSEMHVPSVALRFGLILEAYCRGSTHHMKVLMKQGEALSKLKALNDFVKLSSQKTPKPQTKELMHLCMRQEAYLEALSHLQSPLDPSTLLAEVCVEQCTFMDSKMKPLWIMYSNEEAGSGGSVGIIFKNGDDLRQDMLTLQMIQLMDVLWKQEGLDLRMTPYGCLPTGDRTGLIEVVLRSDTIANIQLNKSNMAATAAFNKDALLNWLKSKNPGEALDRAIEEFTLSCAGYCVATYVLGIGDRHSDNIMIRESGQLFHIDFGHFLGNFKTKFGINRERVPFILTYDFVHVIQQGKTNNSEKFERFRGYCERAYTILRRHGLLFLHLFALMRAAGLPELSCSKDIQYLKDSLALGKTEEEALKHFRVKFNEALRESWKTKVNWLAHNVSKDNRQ
Target sequence in this assay (Q63787 whole entry partner): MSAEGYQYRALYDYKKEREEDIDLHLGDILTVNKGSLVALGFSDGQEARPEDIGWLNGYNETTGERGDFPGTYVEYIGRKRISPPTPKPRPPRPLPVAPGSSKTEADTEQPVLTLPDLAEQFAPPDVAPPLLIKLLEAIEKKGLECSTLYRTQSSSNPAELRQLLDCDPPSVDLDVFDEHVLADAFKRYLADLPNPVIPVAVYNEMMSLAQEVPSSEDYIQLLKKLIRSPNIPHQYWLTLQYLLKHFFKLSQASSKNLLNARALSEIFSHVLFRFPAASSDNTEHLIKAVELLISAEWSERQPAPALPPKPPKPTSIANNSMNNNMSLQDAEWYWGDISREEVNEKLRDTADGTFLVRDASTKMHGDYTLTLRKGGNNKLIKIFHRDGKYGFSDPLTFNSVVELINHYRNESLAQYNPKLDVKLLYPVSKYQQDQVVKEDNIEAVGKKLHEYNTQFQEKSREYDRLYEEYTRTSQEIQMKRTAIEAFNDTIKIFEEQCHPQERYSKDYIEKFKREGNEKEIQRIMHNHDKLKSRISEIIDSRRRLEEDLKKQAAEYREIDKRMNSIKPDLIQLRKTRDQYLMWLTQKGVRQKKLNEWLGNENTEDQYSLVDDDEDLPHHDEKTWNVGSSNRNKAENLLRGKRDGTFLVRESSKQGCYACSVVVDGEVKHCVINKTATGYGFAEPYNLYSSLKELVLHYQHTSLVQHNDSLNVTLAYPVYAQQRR

PI 3-kinase delta [3] = target: T2, PI 3-kinase delta; assay: TR-FRET Adapta assay, assay F
Target sequence in this assay (O00329 whole entry): as the sequence (O00329 whole entry) above
Target sequence in this assay (P27986 461-568 partner): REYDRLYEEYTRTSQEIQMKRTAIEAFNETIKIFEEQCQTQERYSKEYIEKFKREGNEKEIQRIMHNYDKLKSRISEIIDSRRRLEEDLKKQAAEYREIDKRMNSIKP

PI 3-kinase beta [4] = target: T1, PI 3-kinase beta; assay: Cellular assay I1, p-Akt (S473) in Rat-1 cells, Surefire format; format: cell-based; settings: non-asterisked data: version I1 (Surefire format), Rat-1 cells; read-out: Assay I PI3Kβ IC50
PI 3-kinase alpha [5] = target: T3, PI 3-kinase alpha (Homo sapiens, UniProt P42336); assay: Kinase Glo Luminescent Kinase Assay (Kglo), assay A; format: biochemical; settings: read-out: Assay A PI3Kα IC50
Target sequence in this assay (P42336 whole entry): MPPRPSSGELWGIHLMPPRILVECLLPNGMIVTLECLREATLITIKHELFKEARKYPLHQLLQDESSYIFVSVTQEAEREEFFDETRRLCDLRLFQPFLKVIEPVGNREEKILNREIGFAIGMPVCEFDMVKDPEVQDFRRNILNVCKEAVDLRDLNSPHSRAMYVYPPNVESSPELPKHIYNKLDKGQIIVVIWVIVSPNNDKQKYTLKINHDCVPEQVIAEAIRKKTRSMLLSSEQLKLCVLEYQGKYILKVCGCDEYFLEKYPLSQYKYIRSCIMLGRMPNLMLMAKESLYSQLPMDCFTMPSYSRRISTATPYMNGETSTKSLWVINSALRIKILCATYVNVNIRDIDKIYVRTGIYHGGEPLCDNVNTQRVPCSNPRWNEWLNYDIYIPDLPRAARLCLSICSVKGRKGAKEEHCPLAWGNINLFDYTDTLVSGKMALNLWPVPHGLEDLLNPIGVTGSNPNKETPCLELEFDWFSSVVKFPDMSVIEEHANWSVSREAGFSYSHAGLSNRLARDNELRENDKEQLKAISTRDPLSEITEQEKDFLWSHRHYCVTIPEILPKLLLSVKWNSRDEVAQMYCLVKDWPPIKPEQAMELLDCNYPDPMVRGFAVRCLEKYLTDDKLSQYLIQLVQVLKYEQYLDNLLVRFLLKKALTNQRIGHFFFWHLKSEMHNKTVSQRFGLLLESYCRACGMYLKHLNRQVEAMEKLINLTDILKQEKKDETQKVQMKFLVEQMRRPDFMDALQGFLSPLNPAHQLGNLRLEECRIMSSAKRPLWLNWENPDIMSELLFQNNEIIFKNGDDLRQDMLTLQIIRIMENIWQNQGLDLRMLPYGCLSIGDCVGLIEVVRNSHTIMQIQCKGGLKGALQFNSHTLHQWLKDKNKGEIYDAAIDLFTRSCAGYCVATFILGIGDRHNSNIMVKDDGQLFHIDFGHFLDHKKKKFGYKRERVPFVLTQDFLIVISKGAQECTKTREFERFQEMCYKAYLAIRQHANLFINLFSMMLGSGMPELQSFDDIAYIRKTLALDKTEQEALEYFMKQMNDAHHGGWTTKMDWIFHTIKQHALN

Vps34 = Vps34 (Homo sapiens, UniProt Q8NEB9); assay: Kinase Glo Luminescent Kinase Assay (Kglo), assay C; format: biochemical; settings: read-out: Assay C VPS34 IC50
PI 4-kinase beta = PI 4-kinase beta (Homo sapiens, UniProt Q9UBF8); assay: Kinase Glo Luminescent Kinase Assay (Kglo), assay D; format: biochemical; settings: read-out: Assay D PI4Kβ IC50
[6] = Microsomal clearance assay (M); settings: intrinsic clearance in rat liver microsomes
Method: The experiments were performed in 96-well glass plates at 37° C. on an automated Tecan EVO platform. Test compounds at a concentration of 10 mM in pure DMSO were diluted 1:1000 in water to 10 μM. […] Reactions were initiated by the addition of 150 μL of a cofactor solution containing 2 mM NADPH.

mTOR = mTOR (Homo sapiens, UniProt P42345); assay: Lanthascreen kinase binding assay, assay G; settings: read-out: Assay G mTOR IC50
Method: Lanthascreen™ Kinase Binding Assay for mTOR (G)
Binding of an inhibitor to the kinase competes for binding with the tracer, resulting in a loss of FRET.
50 nL of compound dilutions were dispensed onto white 384-well small volume polystyrene plate.

[7] = test system: IL-8-induced neutrophil shape change in human whole blood; assay: Whole blood neutrophil shape change assay (L); format: cell-based; settings: IL-8, human whole blood, read-out: Assay L WBSC IC50
PI 3-kinase gamma [8] = target: T4, PI 3-kinase gamma (Homo sapiens, UniProt P48736); assay: TR-FRET Adapta assay, assay E; format: biochemical; settings: read-out: Assay E PI3Kγ IC50
PI 3-kinase gamma [9] = target: T4, PI 3-kinase gamma; assay: Cellular U937 AKT assay K1 (MSD); format: cell-based; settings: U937 cells, K1 format; read-out: Assay K1 PI3Kγ IC50
PI 3-kinase alpha [10] = target: T3, PI 3-kinase alpha; assay: Cellular assay H1, p-Akt (S473) in Rat-1 cells, Surefire format; format: cell-based; settings: non-asterisked data: version H1 (Surefire format), Rat-1 cells; read-out: Assay H PI3Kα IC50
Target sequence in this assay (P42336 whole entry): as above
Target sequence in this assay (Q63787 whole entry partner): as the sequence (Q63787 whole entry partner) above

T4 sequence (P48736 whole entry): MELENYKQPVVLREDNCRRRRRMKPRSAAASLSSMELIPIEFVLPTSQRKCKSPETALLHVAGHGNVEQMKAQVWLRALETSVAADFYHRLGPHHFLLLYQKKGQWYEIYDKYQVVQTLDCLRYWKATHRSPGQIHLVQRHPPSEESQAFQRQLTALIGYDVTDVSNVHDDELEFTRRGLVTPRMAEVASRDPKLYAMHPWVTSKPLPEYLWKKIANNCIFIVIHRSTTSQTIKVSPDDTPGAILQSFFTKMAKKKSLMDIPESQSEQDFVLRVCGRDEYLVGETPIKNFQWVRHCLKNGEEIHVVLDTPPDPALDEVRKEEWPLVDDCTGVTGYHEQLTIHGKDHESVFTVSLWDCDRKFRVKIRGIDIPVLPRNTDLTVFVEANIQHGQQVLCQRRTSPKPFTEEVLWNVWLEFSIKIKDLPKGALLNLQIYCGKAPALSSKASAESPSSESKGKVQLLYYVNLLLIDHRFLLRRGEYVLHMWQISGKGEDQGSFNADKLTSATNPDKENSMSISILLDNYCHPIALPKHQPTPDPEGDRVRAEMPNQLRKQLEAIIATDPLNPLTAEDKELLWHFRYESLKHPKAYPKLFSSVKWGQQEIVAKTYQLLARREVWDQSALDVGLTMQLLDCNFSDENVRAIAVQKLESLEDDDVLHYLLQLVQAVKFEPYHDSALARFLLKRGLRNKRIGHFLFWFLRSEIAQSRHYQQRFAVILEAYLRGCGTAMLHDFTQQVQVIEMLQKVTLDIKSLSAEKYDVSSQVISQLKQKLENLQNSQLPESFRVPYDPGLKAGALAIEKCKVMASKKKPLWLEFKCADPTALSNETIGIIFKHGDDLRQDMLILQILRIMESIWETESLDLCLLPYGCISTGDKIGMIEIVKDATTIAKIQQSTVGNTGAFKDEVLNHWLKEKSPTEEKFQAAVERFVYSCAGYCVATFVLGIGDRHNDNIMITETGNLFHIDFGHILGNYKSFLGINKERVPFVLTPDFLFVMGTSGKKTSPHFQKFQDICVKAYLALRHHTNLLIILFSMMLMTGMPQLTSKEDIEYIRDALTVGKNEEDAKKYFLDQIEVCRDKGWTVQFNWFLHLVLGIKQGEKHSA
Chain of PI 4-kinase beta (Q9UBF8 whole entry): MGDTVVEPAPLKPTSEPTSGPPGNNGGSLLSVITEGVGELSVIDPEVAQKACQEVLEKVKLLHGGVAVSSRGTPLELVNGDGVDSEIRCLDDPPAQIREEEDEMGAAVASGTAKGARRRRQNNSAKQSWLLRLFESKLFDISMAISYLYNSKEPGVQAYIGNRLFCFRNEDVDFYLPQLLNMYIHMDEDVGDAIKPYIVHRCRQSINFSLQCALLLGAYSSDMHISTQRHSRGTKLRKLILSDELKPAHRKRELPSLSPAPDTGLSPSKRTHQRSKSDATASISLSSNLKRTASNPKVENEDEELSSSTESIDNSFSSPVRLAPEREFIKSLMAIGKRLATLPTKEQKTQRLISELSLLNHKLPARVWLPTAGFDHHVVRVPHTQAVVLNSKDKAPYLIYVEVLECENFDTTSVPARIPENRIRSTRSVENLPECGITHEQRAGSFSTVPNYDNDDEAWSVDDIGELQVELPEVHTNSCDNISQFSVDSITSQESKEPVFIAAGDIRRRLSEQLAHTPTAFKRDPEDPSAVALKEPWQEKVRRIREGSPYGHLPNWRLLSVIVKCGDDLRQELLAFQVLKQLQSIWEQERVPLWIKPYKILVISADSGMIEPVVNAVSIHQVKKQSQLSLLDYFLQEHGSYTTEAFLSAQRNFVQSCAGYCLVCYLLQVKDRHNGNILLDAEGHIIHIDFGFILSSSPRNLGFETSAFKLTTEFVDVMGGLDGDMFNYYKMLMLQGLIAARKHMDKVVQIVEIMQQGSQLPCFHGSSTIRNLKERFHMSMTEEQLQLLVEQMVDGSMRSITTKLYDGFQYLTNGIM

Structure (SMILES)	IC50 (PI 3-kinase beta [1]) [nM]	IC50 (PI 3-kinase delta [2]) [nM]	IC50 (PI 3-kinase delta [3]; read-out: Assay F PI3Kδ IC50) [µM]	IC50 (PI 3-kinase beta [4]) [nM]	IC50 (PI 3-kinase alpha [5]) [nM]	IC50 (Vps34) [nM]	IC50 (PI 4-kinase beta) [nM]	Assay M RLM CI(int) [6] [µL/min/mg]	IC50 (mTOR) [nM]	IC50 ([7]; Homo sapiens, Neutrophil) [nM]	IC50 (PI 3-kinase gamma [8]) [nM]	IC50 (PI 3-kinase gamma [9]) [nM]	IC50 (PI 3-kinase alpha [10]) [nM]	IC50 (PI 3-kinase delta [3]) [µM]	IC50 [7] [nM]	IC50 (PI 3-kinase delta [3]; Assay F PI3Kδ IC50 (μM)) [µM]
Cc1ccc(S(=O)(=O)NC2CCC(F)(F)CC2)cc1-c1cnc(N)c(-c2cnn(C)c2)n1 [Example 54, 3-(5-Amino-6-(1-methyl-1H-pyrazol-4-yl)pyrazin-2-yl)-N-(4,4-difluorocyclohexyl)-4-methylbenzenesulfonamide]	770	2030	0.11	7410	190	> 9100	> 9100	141	4810	2010	17	140	1690			
Cc1cn(-c2nc(-c3cc(S(=O)(=O)NCCCO)ccc3C)cnc2N)cn1 [Example 57, 3-(5-Amino-6-(4-methyl-1H-imidazol-1-yl)pyrazin-2-yl)-N-(3-hydroxypropyl)-4-methylbenzenesulfonamide]	6480	> 10000	0.58	> 10000	320	> 9100	> 9100	17	> 9100	1270	57	329	> 10000			
CCCc1noc(-c2nc(-c3cc(S(=O)(=O)N[C@H]4CC[C@H](O)CC4)ccc3C)cnc2N)n1 [Example 140, Trans-3-[5-Amino-6-(3-propyl-[1,2,4]oxadiazol-5-yl)-pyrazin-2-yl]-N-(4-hydroxy-cyclohexyl)-4-methyl-benzene sulfonamide]	7160	840	0.09	6380	240	> 9100	> 9100	82	8820	817	16	51	1110			
Cc1cc(F)c(S(=O)(=O)NCCCO)cc1-c1cnc(N)c(-c2cnn(C)c2)n1 [Example 114, 5-(5-Amino-6-(1-methyl-1H-pyrazol-4-yl)pyrazin-2-yl)-2-fluoro-N-(3-hydroxypropyl)-4-methylbenzenesulfonamide]	3700	7990	1.19	> 3000	290	7830	5900	17	> 9100	499	44	177	5430			
Cc1cc(-c2nc(-c3cc(S(=O)(=O)N[C@H]4CC[C@H](O)CC4)ccc3C)cnc2N)ccn1 [Example 135, 3-(5-Amino-6-(2-methylpyridin-4-yl)pyrazin-2-yl)-N-((1r,4r)-4-hydroxycyclohexyl)-4-methylbenzenesulfonamide]	5220	9390		8750	180	> 9550	4160	30	4370	359	51	63	7840	1.7		
Cc1ccc(S(=O)(=O)NC[C@H]2C[C@@H](O)C2)cc1-c1cnc(N)c(-n2cncn2)n1 [Example 72, 3-(5-Amino-6-(1H-1,2,4-triazol-1-yl)pyrazin-2-yl)-N-(((1s,3s)-3-hydroxycyclobutyl)methyl)-4-methylbenzenesulfonamide]	2670	2640	0.39	6030	580	> 9100	> 9100	41	> 9100	723	34	293	3110			
Cc1ccc(S(=O)(=O)N[C@H]2CC[C@H](O)CC2)cc1-c1cnc(N)c(-n2cccn2)n1 [Example 103, 3-(5-Amino-6-(1H-pyrazol-1-yl)pyrazin-2-yl)-N-((1r,4r)-4-hydroxycyclohexyl)-4-methylbenzenesulfonamide]	1880	850	0.15	3250	390	> 9100	2740	29	> 9100	515	13	28	2250			
Cc1ccc(S(=O)(=O)N[C@H]2CC[C@H](O)CC2)cc1-c1cnc(N)c(-c2nc(C3CC3)no2)n1 [Example 24, Trans-3-[5-Amino-6-(3-cyclopropyl-[1,2,4]oxadiazol-5-yl)-pyrazin-2-yl]-N-(4-hydroxy-cyclohexyl)-4-methyl-benzene sulfonamide]	6060	660	0.06	6250	200	> 9100	> 9100	43	7910	561	7	53	1060			
Cc1ncc(-c2nc(-c3cc(S(=O)(=O)N4CCNC(C(F)(F)F)C4)ccc3C)cnc2N)s1 (centres unmarked) [Example 118, 5-(2-Methyl-5-(3-(trifluoromethyl)piperazin-1-ylsulfonyl)phenyl)-3-(2-methylthiazol-5-yl)pyrazin-2-amine]	470	530	0.13	1590	30	1460	4720	264	460	898	11	102	630			

Further lines, results first:

IC50 (PI 3-kinase beta [1]) [nM]	IC50 (PI 3-kinase delta [2]) [nM]	IC50 (PI 3-kinase delta [3]; read-out: Assay F PI3Kδ IC50) [µM]	IC50 (PI 3-kinase beta [4]) [nM]	IC50 (PI 3-kinase alpha [5]) [nM]	IC50 (Vps34) [nM]	IC50 (PI 4-kinase beta) [nM]	Assay M RLM CI(int) [6] [µL/min/mg]	IC50 (mTOR) [nM]	IC50 ([7]; Homo sapiens, Neutrophil) [nM]	IC50 (PI 3-kinase gamma [8]) [nM]	IC50 (PI 3-kinase gamma [9]) [nM]	IC50 (PI 3-kinase alpha [10]) [nM]	IC50 (PI 3-kinase delta [3]) [µM]	IC50 [7] [nM]	IC50 (PI 3-kinase delta [3]; Assay F PI3Kδ IC50 (μM)) [µM]	Structure (SMILES)
7850	1240	0.11	6990	160	> 9100	3740	79	2230	1660	7	46	2830				Cc1ccc(S(=O)(=O)NCCC(C)(C)O)cc1-c1cnc(N)c(-c2cnn(C(C)C)c2)n1 [Example 119.31]
4970	910	0.12	9240	170	> 9100	5750	87	4780	726	35	128	470				Cc1ccc(S(=O)(=O)NCCC(C)(C)O)cc1-c1cnc(N)c(-c2ccncc2)n1 [Example 119.27]
1400	5180	0.69	8470	390	> 10000	> 10000	227	9600		57	135	6680		1950		Cc1ccc(S(=O)(=O)N[C@H]2CC[C@@](C)(O)CC2)cc1-c1cnc(N)c(-n2cncn2)n1 [Example 69b, 3-(5-amino-6-(1H-1,2,4-triazol-1-yl)pyrazin-2-yl)-N-(cis-4-hydroxy-4-methylcyclohexyl)-4-methylbenzenesulfonamide]
690	3590	0.26	> 10000	160	> 9100	1000	50	> 9100	601	14	730	5510				Cc1ccc(S(=O)(=O)NCCC(C)(C)O)cc1-c1cnc(N)c(-c2cn[nH]c2)n1 [Example 119.33]
3500	2660		4420	390	> 10000	> 10000	49	9200	1150	38	103	3300			0.53	Cc1ccc(S(=O)(=O)N[C@H]2CC[C@](C)(O)CC2)cc1-c1cnc(N)c(-n2cncn2)n1 [Example 69a, 3-(5-amino-6-(1H-1,2,4-triazol-1-yl)pyrazin-2-yl)-N-((1r,4r)-4-hydroxy-4-methylcyclohexyl)-4-methylbenzenesulfonamide]
